Data: US7601716B2, “Pyridopyrazines and derivatives thereof as ALK and c-Met inhibitors” (Cephalon, Inc., priority 2006, dated 2009)

Assays:
[1] = target: T1, c-Met (cytoplasmic domain) (Homo sapiens, UniProt P08581); assay: c-Met Kinase Assay (ELISA/TRF, PLC-γ substrate); format: biochemical; conditions: 3 μM ATP (Km level); read-out: c-Met Kinase Inhibition (IC50)
T1 construct: Reactions were initiated with 30 ng/mL c-Met (cytoplasmic domain, Invitrogen Corporation #PV3143); purchased Invitrogen Corporation PV3143
T1 sequence (P08581 956-1390 limits assumed): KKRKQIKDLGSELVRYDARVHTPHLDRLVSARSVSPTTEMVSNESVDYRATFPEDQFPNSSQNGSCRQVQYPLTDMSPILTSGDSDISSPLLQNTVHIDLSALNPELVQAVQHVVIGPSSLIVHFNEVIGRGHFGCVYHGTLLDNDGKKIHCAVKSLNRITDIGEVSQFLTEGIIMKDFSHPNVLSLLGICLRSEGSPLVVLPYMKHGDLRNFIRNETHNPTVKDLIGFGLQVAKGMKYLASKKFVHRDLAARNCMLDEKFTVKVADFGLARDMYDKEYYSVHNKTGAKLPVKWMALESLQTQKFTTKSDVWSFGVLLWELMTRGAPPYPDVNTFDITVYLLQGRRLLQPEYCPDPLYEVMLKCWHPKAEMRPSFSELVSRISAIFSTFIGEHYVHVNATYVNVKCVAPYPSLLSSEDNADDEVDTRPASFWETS
Procedure, shortened: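 Readout is TRF of europium anti-phosphotyrosine (PT66) bound to GST–PLC-γ substrate coated at 10 μg/mL, after a 15 min, 37 °C reaction started with 30 ng/mL c-Met cytoplasmic domain. Percent inhibition plotted against log compound concentration and fitted (variable slope) for IC50.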

[2] = target: baculovirus-expressed ALK (Homo sapiens, UniProt Q9UM73); assay: ALK Kinase Assay (ELISA/TRF, PLC-γ substrate); format: biochemical; conditions: read-out: ALK Kinase Inhibition (IC50); note: 1 µM ATP (Km level)
Sequence of baculovirus-expressed ALK (Q9UM73 19-1620): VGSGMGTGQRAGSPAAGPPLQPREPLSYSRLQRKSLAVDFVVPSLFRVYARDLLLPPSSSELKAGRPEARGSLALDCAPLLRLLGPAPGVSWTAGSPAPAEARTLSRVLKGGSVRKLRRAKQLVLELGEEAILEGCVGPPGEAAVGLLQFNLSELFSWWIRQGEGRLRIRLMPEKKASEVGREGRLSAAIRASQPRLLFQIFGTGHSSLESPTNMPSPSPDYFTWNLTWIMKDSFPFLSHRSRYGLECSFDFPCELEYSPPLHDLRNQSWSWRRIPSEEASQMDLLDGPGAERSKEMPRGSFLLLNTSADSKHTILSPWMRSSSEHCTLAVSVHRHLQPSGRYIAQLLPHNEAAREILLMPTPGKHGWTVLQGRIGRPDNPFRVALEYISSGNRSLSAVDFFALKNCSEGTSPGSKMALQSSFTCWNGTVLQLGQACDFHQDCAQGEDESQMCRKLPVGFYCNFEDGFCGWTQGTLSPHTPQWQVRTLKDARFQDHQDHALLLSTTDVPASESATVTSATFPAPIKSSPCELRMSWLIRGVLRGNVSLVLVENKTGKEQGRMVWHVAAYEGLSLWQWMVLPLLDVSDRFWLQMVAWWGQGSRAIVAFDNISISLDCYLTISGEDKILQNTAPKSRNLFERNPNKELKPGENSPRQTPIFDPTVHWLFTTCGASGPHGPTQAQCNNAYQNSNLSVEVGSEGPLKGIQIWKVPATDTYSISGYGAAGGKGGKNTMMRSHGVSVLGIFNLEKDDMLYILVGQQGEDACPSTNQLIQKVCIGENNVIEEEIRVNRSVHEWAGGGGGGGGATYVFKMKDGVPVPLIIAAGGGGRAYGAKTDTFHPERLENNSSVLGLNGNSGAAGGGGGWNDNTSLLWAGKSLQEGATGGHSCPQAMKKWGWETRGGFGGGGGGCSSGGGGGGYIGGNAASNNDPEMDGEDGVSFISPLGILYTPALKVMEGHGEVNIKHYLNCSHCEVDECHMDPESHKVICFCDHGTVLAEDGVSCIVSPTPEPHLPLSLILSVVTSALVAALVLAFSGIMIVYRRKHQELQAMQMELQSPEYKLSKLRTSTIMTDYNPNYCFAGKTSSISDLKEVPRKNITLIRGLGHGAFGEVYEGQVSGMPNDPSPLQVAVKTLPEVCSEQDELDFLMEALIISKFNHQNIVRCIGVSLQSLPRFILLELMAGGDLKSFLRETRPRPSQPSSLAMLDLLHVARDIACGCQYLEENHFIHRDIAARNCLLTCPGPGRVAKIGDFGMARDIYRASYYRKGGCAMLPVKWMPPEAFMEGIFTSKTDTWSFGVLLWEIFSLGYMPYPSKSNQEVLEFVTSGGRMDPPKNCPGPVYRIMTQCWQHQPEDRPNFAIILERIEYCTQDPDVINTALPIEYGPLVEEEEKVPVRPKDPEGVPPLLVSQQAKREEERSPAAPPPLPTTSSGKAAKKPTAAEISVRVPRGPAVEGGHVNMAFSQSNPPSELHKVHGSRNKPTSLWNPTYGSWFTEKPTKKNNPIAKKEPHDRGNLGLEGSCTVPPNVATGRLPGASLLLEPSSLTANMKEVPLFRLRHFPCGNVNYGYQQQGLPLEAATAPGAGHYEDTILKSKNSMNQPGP
Procedure, shortened: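 Substrate phosphorylation by 30 ng/ml ALK (37° C, 15 min) on PLC-γ-coated wells is quantified via time-resolved europium fluorescence from an anti-phosphotyrosine antibody. Percent inhibition against log10 compound concentration yields IC50 by nonlinear regression.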

Row | IC50 [1] | IC50 [2] | melting point | Compound
1 | > 100 µM | > 100 µM | > 200 °C | N#Cc1ccc(-c2cnc3c(c2)N(Cc2ccccc2)C(=O)CN3)cn1 [Example 28, 5-(1-Benzyl-2-oxo-1,2,3,4-tetrahydropyrido[2,3-b]pyrazin-7-yl)pyridine-2-carbonitrile]
2 | 10 to 100 µM | 1 to 10 µM | 211 °C | COC(=O)c1cccc(-c2cnc3c(c2)N(Cc2ccccc2)C(=O)CN3)c1 [Example 30, 3-(1-Benzyl-2-oxo-1,2,3,4-tetrahydropyrido[2,3-b]pyrazin-7-yl)benzoic acid methyl ester]
3 | > 100 µM | 10 to 100 µM | 147 to 148 °C | Ic1cnc2c(c1)N(Cc1ccccc1)CCN2 [Example 33, 1-Benzyl-7-iodo-1,2,3,4-tetrahydropyrido[2,3-b]pyrazine]
4 | > 100 µM | 1 to 10 µM | 178 to 179 °C | CCOC(=O)c1ccc(-c2cnc3c(c2)N(Cc2ccccc2)CCN3)cc1 [Example 35, 4-(1-Benzyl-1,2,3,4-tetrahydropyrido[2,3-b]pyrazin-7-yl)benzoic acid ethyl ester]
5 | 1 to 10 µM | 0.1 to 1 µM | > 300 °C | O=C(O)c1ccc(-c2cnc3c(c2)N(Cc2ccccc2)CCN3)cc1 [Example 36, 4-(1-Benzyl-1,2,3,4-tetrahydropyrido[2,3-b]pyrazin-7-yl)benzoic acid]
6 | 10 to 100 µM | 1 to 10 µM | 180 to 181 °C | CN1CCN(C(=O)c2ccc(-c3cnc4c(c3)N(Cc3ccccc3)CCN4)cc2)CC1 [Example 37, [4-(1-Benzyl-1,2,3,4-tetrahydropyrido[2,3-b]pyrazin-7-yl)phenyl]-(4-methylpiperazin-1-yl)methanone]
7 | 10 to 100 µM | 1 to 10 µM | 120 °C | O=C(c1ccc(-c2cnc3c(c2)N(Cc2ccccc2)CCN3)cc1)N1CCC(N2CCCC2)CC1 [Example 39, [4-(1-Benzyl-1,2,3,4-tetrahydropyrido[2,3-b]pyrazin-7-yl)phenyl]-(4-(pyrrolidin-1-yl)piperidin-1-yl)methanone]
8 | > 100 µM | > 100 µM | 126 to 128 °C | Ic1cnc2c(c1)NCCN2 [Example 40, 7-Iodo-1,2,3,4-tetrahydropyrido[2,3-b]pyrazine]
9 | > 100 µM | > 100 µM | 166 to 168 °C | O=C(c1ccccc1)N1CCNc2ncccc21 [Example 41, (3,4-Dihydro-2H-pyrido[2,3-b]pyrazin-1-yl)phenylmethanone]
10 | > 100 µM | > 100 µM | 164 to 166 °C | O=C(c1ccccc1)N1CCNc2ncc(I)cc21 [Example 42, (7-Iodo-3,4-dihydro-2H-pyrido[2,3-b]pyrazin-1-yl)phenylmethanone]
11 | 10 to 100 µM | > 100 µM | 219 to 220 °C | O=C(c1ccccc1)N1CCNc2ncc(-c3cccnc3)cc21 [Example 43, Phenyl-(7-pyridin-3-yl-3,4-dihydro-2H-pyrido[2,3-b]pyrazin-1-yl)methanone]
12 | 10 to 100 µM | > 100 µM | 177 to 178 °C | CCOC(=O)c1ccc(-c2cnc3c(c2)N(C(=O)c2ccccc2)CCN3)cc1 [Example 44, 4-(1-Benzoyl-1,2,3,4-tetrahydropyrido[2,3-b]pyrazin-7-yl)benzoic acid ethyl ester]
13 | > 100 µM | 0.1 to 1 µM | 225 °C | O=C1CNc2ncc(-c3ccc(NS(=O)(=O)CCN4CCOCC4)cc3)cc2N1Cc1cc(F)ccc1F [Example 50, 2-Morpholin-4-yl-ethanesulfonic acid{4-[1-(2,5-difluorobenzyl)-2-oxo-1,2,3,4-tetrahydropyrido[2,3-b]pyrazin-7-yl]phenyl}-amide]
14 | 10 to 100 µM | 10 to 100 µM | 145 to 147 °C | CN(C)CCNC(=O)c1ccc(-c2cnc3c(c2)N(C(=O)c2ccccc2)CCN3)cc1 [Example 52, 4-(1-Benzoyl-1,2,3,4-tetrahydropyrido[2,3-b]pyrazin-7-yl)-N-(2-dimethylamino-ethyl)benzamide]
15 | 10 to 100 µM | > 100 µM | 94 °C | CN(C)CCCNC(=O)c1ccc(-c2cnc3c(c2)N(C(=O)c2ccccc2)CCN3)cc1 [Example 53, 4-(1-Benzoyl-1,2,3,4-tetrahydropyrido[2,3-b]pyrazin-7-yl)-N-(3-dimethylamino-propyl)benzamide]
16 | > 100 µM | 10 to 100 µM | 201 to 203 °C | CCOC(=O)c1ccc(-c2cnc3c(c2)N(Cc2cc(F)ccc2F)C(=O)CN3)cc1 [Example 55, 4-[1-(2,5-Difluorobenzyl)-2-oxo-1,2,3,4-tetrahydropyrido[2,3-b]pyrazin-7-yl]benzoic acid ethyl ester]

Row | IC50 [1] | IC50 [2] | melting point | Compound
17 | 10 to 100 µM | 1 to 10 µM | > 300 °C | O=C(O)c1ccc(-c2cnc3c(c2)N(Cc2cc(F)ccc2F)C(=O)CN3)cc1 [Example 56, 4-[1-(2,5-Difluorobenzyl)-2-oxo-1,2,3,4-tetrahydropyrido[2,3-b]pyrazin-7-yl]benzoic acid]
18 | 10 to 100 µM | 0.1 to 1 µM | 223 °C (dec.) | CN1CCN(C(=O)c2ccc(-c3cnc4c(c3)N(Cc3cc(F)ccc3F)C(=O)CN4)cc2)CC1 [Example 59, 1-(2,5-Difluorobenzyl)-7-[4-(4-methylpiperazine-1-carbonyl)phenyl]-3,4-dihydro-1H-pyrido[2,3-b]pyrazin-2-one]
19 | 1 to 10 µM | 0.1 to 1 µM | 186 °C (dec.) | O=C(c1ccc(-c2cnc3c(c2)N(Cc2cc(F)ccc2F)C(=O)CN3)cc1)N1CCC(N2CCCC2)CC1 [Example 60, 1-(2,5-Difluorobenzyl)-7-[4-(4-(pyrrolidin-1-yl)piperidine-1-carbonyl)phenyl]-3,4-dihydro-1H-pyrido[2,3-b]pyrazin-2-one]
20 | 10 to 100 µM | 1 to 10 µM | 175 °C | Fc1ccc(F)c(CN2CCNc3ncc(I)cc32)c1 [Example 62, 1-(2,5-Difluorobenzyl)-7-iodo-1,2,3,4-tetrahydropyrido[2,3-b]pyrazine]
21 | > 100 µM | 0.1 to 1 µM | 173 to 174 °C | CCOC(=O)c1ccc(-c2cnc3c(c2)N(Cc2cc(F)ccc2F)CCN3)cc1 [Example 63, 4-[1-(2,5-Difluorobenzyl)-1,2,3,4-tetrahydropyrido[2,3-b]pyrazin-7-yl]benzoic acid ethyl ester]
22 | 10 to 100 µM | 0.1 to 1 µM | > 300 °C | O=C(O)c1ccc(-c2cnc3c(c2)N(Cc2cc(F)ccc2F)CCN3)cc1 [Example 64, 4-[1-(2,5-Difluorobenzyl)-1,2,3,4-tetrahydropyrido[2,3-b]pyrazin-7-yl]benzoic acid]
23 | 1 to 10 µM | 0.1 to 1 µM | 180 °C | CN1CCN(C(=O)c2ccc(-c3cnc4c(c3)N(Cc3cc(F)ccc3F)CCN4)cc2)CC1 [Example 67, {4-[1-(2,5-Difluorobenzyl)-1,2,3,4-tetrahydropyrido[2,3-b]pyrazin-7-yl]phenyl}-(4-methylpiperazin-1-yl)methanone]
24 | 10 to 100 µM | 0.1 to 1 µM | 206 to 207 °C | Fc1ccc(F)c(CN2CCNc3ncc(-c4ccc(N5CCOCC5)nc4)cc32)c1 [Example 70, 1-(2,5-Difluorobenzyl)-7-(6-morpholin-4-yl-pyridin-3-yl)-1,2,3,4-tetrahydropyrido[2,3-b]pyrazine]
25 | > 100 µM | 0.1 to 1 µM | 200 °C (dec.) | N#Cc1ccc(-c2cnc3c(c2)N(Cc2cc(F)ccc2F)CCN3)cn1 [Example 71, 5-[1-(2,5-Difluorobenzyl)-1,2,3,4-tetrahydropyrido[2,3-b]pyrazin-7-yl]-pyridine-2-carbonitrile]
26 | 10 to 100 µM | 0.1 to 1 µM | 169 to 172 °C | CCOC(=O)c1cncc(-c2cnc3c(c2)N(Cc2cc(F)ccc2F)CCN3)c1 [Example 73, 5-[1-(2,5-Difluorobenzyl)-1,2,3,4-tetrahydropyrido[2,3-b]pyrazin-7-yl]-nicotinic acid ethyl ester]
27 | 10 to 100 µM | 10 to 100 µM | 255 to 260 °C | O=C(O)c1cncc(-c2cnc3c(c2)N(Cc2cc(F)ccc2F)CCN3)c1 [Example 74, 5-[1-(2,5-Difluorobenzyl)-1,2,3,4-tetrahydropyrido[2,3-b]pyrazin-7-yl]-nicotinic acid]
28 | 10 to 100 µM | 0.1 to 1 µM | 124 to 125 °C | CCOC(=O)c1cnc2c(c1)N(Cc1cc(F)ccc1F)CCN2 [Example 75, 1-(2,5-Difluorobenzyl)-1,2,3,4-tetrahydropyrido[2,3-b]pyrazine-7-carboxylic acid ethyl ester]
29 | > 100 µM | 1 to 10 µM | 204 to 206 °C | N#Cc1cnc2c(c1)N(Cc1cc(F)ccc1F)CCN2 [Example 77, 1-(2,5-Difluorobenzyl)-1,2,3,4-tetrahydropyrido[2,3-b]pyrazine-7-carbonitrile]
30 | > 100 µM | > 100 µM | 231 °C (dec.) | O=C(O)c1cnc2c(c1)N(Cc1cc(F)ccc1F)CCN2 [Example 78, 1-(2,5-Difluorobenzyl)-1,2,3,4-tetrahydropyrido[2,3-b]pyrazine-7-carboxylic acid]
31 | > 100 µM | > 100 µM | 227 to 228 °C | O=C1CNc2ncc(I)cc2N1Cc1cc(F)c(F)cc1F [Example 81, 7-Iodo-1-(2,4,5-trifluorobenzyl)-3,4-dihydro-1H-pyrido[2,3-b]pyrazin-2-one]
